Assay results reported in PubChem BioAssay AID1920066 (Derbyshire Lab, Chemistry Department, Duke University, 2024).

Tests used:
[1] = competitive binding to P. falciparum Hsp90 – cell lysate, FLECS, GFP-tagged PfHsp90, E. coli lysate, confirmation (AID 1920066); details: liver stage Plasmodium parasite inhibition
[2] = test system: Heat shock protein 90 (Plasmodium falciparum), GFP-tagged; experiment: as above; details: E. coli lysate PfHsp90-GFP ATP-resin elution, fluorescence; at 500 µM; stronger effect = higher value

EC50 [1] | relative binding (F/Fo) [2] | Structure (SMILES)
> 30 µM | 2.54 | NC(=O)c1ccc(NC(=O)CN2CSCC2=O)cc1
> 30 µM | 2.59 | CS(=O)(=O)c1cccc(C(=O)Nc2nc3ccccc3nc2N2CCCC2)c1
0.24 µM | 3.44 | CC[C@@H](C)Nc1cc(C(=O)NC2CC3CCC(C2)N3c2ccc(C(=O)C3CC3)cn2)c(C)cc1C(N)=O (some centres undefined)
> 30 µM | 2.06 | CN(CC(=O)N1CCCC1)c1ncnc2cc(Cl)ccc12
1.5 µM | 4.9 | CCOC(=O)NCc1ccc(-n2c(-c3cc(C(C)C)c(O)cc3O)n[nH]c2=S)cc1
> 30 µM | 2.15 | Cc1ccc(C(C)C)c(OCC(=O)Nc2cccc3cnccc23)c1
> 10 µM | 2.06 | Cn1cc(S(=O)(=O)N2CCN(C(=O)c3ccc(F)cc3)CC2)cc1C(N)=O
